Assay results published in ChEMBL document CHEMBL3875219, “Hetero-Diels-Alder approach to Bis(indolyl)methanes” (Bioorg Med Chem, 2017).

How the values were obtained:
[1] = Cytotoxicity against human THP1 cells assessed as reduction in cell viability after 72 hrs by MTT assay; type: functional, cell-based; conditions: THP-1, 72 h
[2] = Cytotoxicity against mouse EL4 cells assessed as reduction in cell viability after 72 hrs by MTT assay; type: functional, cell-based; conditions: EL4, 72 h
[3] = Cytotoxicity against human U937 cells assessed as reduction in cell viability after 72 hrs by MTT assay; type: functional, cell-based; conditions: U-937, 72 h
THP-1 = test: Selectivity index, ratio of IC50 for mouse S17 cells to IC50 for human THP1 cells; type: functional
[4] = (§1) Cytotoxicity against mouse S17 cells assessed as reduction in cell viability after 72 hrs by MTT assay; type: toxicity, cell-based; conditions: mouse, S17 cells
U-937 = test: Selectivity index, ratio of IC50 for mouse S17 cells to IC50 for human U937 cells; type: functional
EL4 = test: Selectivity index, ratio of IC50 for mouse S17 cells to IC50 for mouse EL4 cells; type: functional
Mus musculus = species on record: Mus musculus; test: as §1; type: toxicity, cell-based; conditions: s17
[5] = Cytotoxicity against mouse S17 cells assessed as cell viability at 100 uM after 72 hrs by MTT assay relative to control; type: toxicity; conditions: read-out: Activity
[6] = Cytotoxicity against human U937 cells assessed as cell viability at 100 uM after 72 hrs by MTT assay relative to control; type: functional; conditions: U-937, 72 h, read-out: Activity

O/N=C(/c1ccc(Br)cc1)C(c1c[nH]c2ccc(Br)cc12)c1c[nH]c2ccc(Br)cc12
IC50 [1]: 12.2 µM
IC50 [2]: 7.65 µM
IC50 [3]: 18.6 µM

C/C(=N/NC(=O)OC(C)(C)C)C(c1c[nH]c2ccccc12)c1c[nH]c2ccccc12
IC50 [1]: 30 µM
IC50 [2]: 15.3 µM
Ratio IC50 (THP-1): 1.67
IC50 at 72 h [4]: 50 µM
Ratio IC50 (U-937): 2
IC50 [3]: 25 µM
Ratio IC50 (EL4): 3.27

Cc1ccc2[nH]cc(C(/C(=N\O)c3ccc(Br)cc3)c3c[nH]c4ccc(C)cc34)c2c1
IC50 [1]: 6.34 µM
IC50 [2]: 3.23 µM
Ratio IC50 (THP-1): 1.81
IC50 at 72 h [4]: 11.5 µM
Ratio IC50 (U-937): 1.17
IC50 [3]: 9.79 µM
Ratio IC50 (EL4): 3.56

C/C(=N/NC(=O)OC(C)(C)C)C(c1c[nH]c2ccc(O)cc12)c1c[nH]c2ccc(O)cc12
IC50 [1]: 28.6 µM
IC50 [2]: 15.4 µM
Ratio IC50 (THP-1): 3.5
IC50 (Mus musculus): Non-Toxic
Ratio IC50 (U-937): <1
IC50 [3]: 157 µM
viability at 72 h, 100 µM [5]: 48.4%
Ratio IC50 (EL4): 6.49

COc1cc([C@@H]2c3cc4c(cc3[C@@H](O[C@@H]3O[C@@H]5CO[C@@H](C)O[C@H]5[C@H](O)[C@H]3O)[C@H]3COC(=O)[C@H]23)OCO4)cc(OC)c1O [ETOPOSIDE]
IC50 [1]: 1.82 µM
IC50 [2]: 4.9 µM
IC50 at 72 h [4]: 10.4 µM
IC50 [3]: 1.1 µM

C/C(=N/NC(=O)OC(C)(C)C)C(c1cn(Cc2ccccc2)c2ccccc12)c1cn(Cc2ccccc2)c2ccccc12
IC50 [1]: 38.8 µM
IC50 [2]: 5.56 µM
viability at 100 µM [6]: 66.6%
Ratio IC50 (THP-1): <1
IC50 at 72 h [4]: 7.65 µM
Ratio IC50 (U-937): <1
Ratio IC50 (EL4): 1.38

C/C(=N/NS(=O)(=O)c1ccc(C)cc1)C(c1c[nH]c2ccccc12)c1c[nH]c2ccccc12
IC50 [1]: 23.5 µM
IC50 [2]: 18.9 µM
Ratio IC50 (THP-1): 1.06
IC50 at 72 h [4]: 25 µM
Ratio IC50 (U-937): 1.09
IC50 [3]: 22.9 µM
Ratio IC50 (EL4): 1.32

O/N=C(/c1ccc(Br)cc1)C(c1c[nH]c2ccc(O)cc12)c1c[nH]c2ccc(O)cc12
IC50 [1]: 15.5 µM
IC50 [2]: 15.6 µM
Ratio IC50 (THP-1): 1.41
IC50 at 72 h [4]: 21.9 µM
Ratio IC50 (U-937): 1.71
IC50 [3]: 12.8 µM
Ratio IC50 (EL4): 1.4

C/C(=N/Nc1ccc([N+](=O)[O-])cc1[N+](=O)[O-])C(c1c[nH]c2ccccc12)c1c[nH]c2ccccc12
IC50 [1]: 14 µM
IC50 [2]: 5.45 µM
Ratio IC50 (THP-1): <1
IC50 at 72 h [4]: 7.92 µM
Ratio IC50 (U-937): <1
IC50 [3]: 13.3 µM
Ratio IC50 (EL4): 1.45

COc1ccc2[nH]cc(C(/C(=N\O)c3ccc(Br)cc3)c3c[nH]c4ccc(OC)cc34)c2c1
IC50 [1]: 22.6 µM
IC50 [2]: 9.29 µM
Ratio IC50 (THP-1): <1
IC50 at 72 h [4]: 17.7 µM
Ratio IC50 (U-937): <1
IC50 [3]: 18.1 µM
Ratio IC50 (EL4): 1.91

C/C(=N/NC(=O)OC(C)(C)C)C(c1c[nH]c2ccc(Br)cc12)c1c[nH]c2ccc(Br)cc12
IC50 [1]: 36.2 µM
IC50 [2]: 22.5 µM
Ratio IC50 (THP-1): 1.14
IC50 at 72 h [4]: 41.3 µM
Ratio IC50 (U-937): 1.46
IC50 [3]: 28.3 µM
Ratio IC50 (EL4): 1.84

C/C(=N/NC(=O)OC(C)(C)C)C(c1cn(C)c2ccccc12)c1cn(C)c2ccccc12
IC50 [1]: 25.3 µM
IC50 [2]: 9.99 µM
IC50 [3]: 14.2 µM
